Data from ChEMBL document CHEMBL4819133, “Exploiting the HSP60/10 chaperonin system as a chemotherapeutic target for colorectal cancer” (Bioorg Med Chem, 2021).

Legend:
HCT-116 = assay: Cytotoxicity against human HCT-116 cells assessed as reduction in cell viability measured after 48 hrs by AlamarBlue assay; format: functional, cell-based; conditions: HCT-116, 48 h
HT-29 = assay: Cytotoxicity against human HT-29 cells assessed as reduction in cell viability measured after 48 hrs by AlamarBlue assay; format: functional, cell-based; conditions: HT-29, 48 h
[1] = Cytotoxicity against human FHs74Int cells assessed as reduction in cell viability measured after 48 hrs by AlamarBlue assay; format: cell-based
[2] = Cytotoxicity against human THLE-3 cells assessed as reduction in cell viability measured after 48 hrs by AlamarBlue assay; format: cell-based; conditions: for CC50 at 48 h: THLE-3 cells
[3] = (§1) Cytotoxicity against human HEK293 cells assessed as reduction in cell viability measured after 48 hrs by AlamarBlue assay; format: cell-based; conditions: HEK293 cells
E. coli GroEL/ES [4] = target: T1, E. coli GroEL/ES (Escherichia coli, UniProt P0A6F5); assay: Inhibition of Escherichia coli GroEL/ES-mediated refolding of the denatured malate dehydrogenase; format: protein-complex assay
T1 sequence (P0A6F5 whole entry, looked up): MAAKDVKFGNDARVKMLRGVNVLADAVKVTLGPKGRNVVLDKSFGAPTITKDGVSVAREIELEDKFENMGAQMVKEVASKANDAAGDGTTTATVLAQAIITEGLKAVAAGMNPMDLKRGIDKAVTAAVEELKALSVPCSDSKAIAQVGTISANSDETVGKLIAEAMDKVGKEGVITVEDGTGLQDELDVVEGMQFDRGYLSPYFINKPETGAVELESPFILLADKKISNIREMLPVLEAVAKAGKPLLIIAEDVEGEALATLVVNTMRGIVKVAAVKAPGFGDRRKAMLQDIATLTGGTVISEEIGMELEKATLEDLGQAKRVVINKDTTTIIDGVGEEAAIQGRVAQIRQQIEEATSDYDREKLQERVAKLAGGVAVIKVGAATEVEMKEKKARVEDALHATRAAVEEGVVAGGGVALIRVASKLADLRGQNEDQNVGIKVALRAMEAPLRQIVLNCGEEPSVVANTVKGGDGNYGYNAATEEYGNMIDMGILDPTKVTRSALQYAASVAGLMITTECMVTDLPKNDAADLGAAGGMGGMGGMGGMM

E. coli GroEL/ES [5] = target: T1, E. coli GroEL/ES; assay: Inhibition of Escherichia coli GroEL/ES-mediated refolding of the denatured rhodanese; format: protein-complex assay
[6] = Inhibition of refolded MDH (unknown origin)-mediated oxidation of NADPH in presence of mesoxalic acid treated with compound after refolding of the denatured enzyme; design: species or system Homo sapiens
[7] = target: T2, Thiosulfate sulfurtransferase (Homo sapiens, UniProt Q16762); assay: Inhibition of refolded Rhodanese (unknown origin)-mediated conversion of cyanide to thiocyanate treated with compound after refolding of the denatured enzyme
T2 sequence (Q16762 whole entry): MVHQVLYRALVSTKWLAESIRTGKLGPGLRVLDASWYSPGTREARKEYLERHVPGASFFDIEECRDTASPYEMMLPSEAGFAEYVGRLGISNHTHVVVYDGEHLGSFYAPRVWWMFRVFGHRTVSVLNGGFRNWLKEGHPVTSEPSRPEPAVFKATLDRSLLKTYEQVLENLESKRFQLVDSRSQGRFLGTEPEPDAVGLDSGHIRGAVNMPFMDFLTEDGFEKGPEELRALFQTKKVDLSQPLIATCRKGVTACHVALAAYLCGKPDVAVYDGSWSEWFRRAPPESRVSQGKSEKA

DLD-1 = assay: Cytotoxicity against human DLD-1 cells assessed as reduction in cell viability measured after 48 hrs by AlamarBlue assay; format: functional, cell-based; conditions: DLD-1, 48 h
FHC = assay: Cytotoxicity against human FHC cells assessed as reduction in cell viability measured after 48 hrs by AlamarBlue assay; format: cell-based
HSP60/HSP10 = HSP60/HSP10 (Homo sapiens, UniProt P10809); assay: Inhibition of human mitochondrial HSP60/10-mediated refolding of the denatured malate dehydrogenase; format: mitochondria, Mitochondria
Chain of HSP60/HSP10 (P10809 whole entry): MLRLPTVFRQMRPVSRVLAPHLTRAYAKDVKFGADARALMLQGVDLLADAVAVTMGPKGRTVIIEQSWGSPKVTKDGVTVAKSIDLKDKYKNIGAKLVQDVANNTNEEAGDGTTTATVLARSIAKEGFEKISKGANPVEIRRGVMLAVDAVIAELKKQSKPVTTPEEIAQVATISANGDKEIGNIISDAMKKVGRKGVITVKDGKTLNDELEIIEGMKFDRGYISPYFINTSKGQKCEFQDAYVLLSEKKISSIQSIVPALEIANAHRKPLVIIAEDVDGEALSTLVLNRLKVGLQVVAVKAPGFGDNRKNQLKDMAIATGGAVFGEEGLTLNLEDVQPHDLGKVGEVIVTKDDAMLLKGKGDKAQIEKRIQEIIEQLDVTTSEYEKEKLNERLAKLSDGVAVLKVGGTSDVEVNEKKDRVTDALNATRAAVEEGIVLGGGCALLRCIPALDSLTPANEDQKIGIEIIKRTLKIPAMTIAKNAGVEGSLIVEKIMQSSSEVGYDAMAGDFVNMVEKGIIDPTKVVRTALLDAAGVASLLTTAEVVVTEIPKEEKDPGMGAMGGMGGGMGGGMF
Chain of HSP60/HSP10 (P61604 whole entry, further chain): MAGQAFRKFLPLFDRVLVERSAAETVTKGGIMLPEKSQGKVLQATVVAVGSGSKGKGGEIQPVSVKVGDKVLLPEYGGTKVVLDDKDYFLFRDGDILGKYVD

HEK293 = assay: as §1; format: cell-based; conditions: hek293, 48 h

SMILES	EC50 (HCT-116)	EC50 (HT-29)	CC50 [1]	CC50 at 48 h [2]	CC50 at 48 h [3]	IC50 (E. coli GroEL/ES [4])	IC50 (E. coli GroEL/ES [5])	IC50 [6]	IC50 [7]	EC50 (DLD-1)	CC50 (FHC)	IC50 (HSP60/HSP10)	CC50 ([2]; thle-3, 48 h)	CC50 (HEK293)
O=S(=O)(Nc1ccc(-c2nc3cc(NS(=O)(=O)c4ccc(Br)cc4)ccc3o2)cc1)c1ccc(Br)cc1	11 µM	17 µM	> 100 µM	18 µM	22 µM	16 µM	34 µM	> 62.5 µM	> 100 µM	–	–	–	–	–
O=S(=O)(Nc1ccc(-c2nc3cc(NS(=O)(=O)c4cccc5ccccc45)ccc3o2)cc1)c1cccc2ccccc12	20 µM	31 µM	52 µM	49 µM	> 100 µM	43 µM	35 µM	> 62.5 µM	> 100 µM	34 µM	–	–	–	–
O=S(=O)(Nc1ccc(-c2nc3cc(NS(=O)(=O)c4ccc(C(F)(F)F)cc4)ccc3o2)cc1)c1ccc(C(F)(F)F)cc1	15 µM	13 µM	69 µM	21 µM	29 µM	19 µM	34 µM	> 62.5 µM	> 100 µM	10 µM	57 µM	57 µM	–	–
Cc1ccc(S(=O)(=O)Nc2ccc(-c3nc4ccc(NS(=O)(=O)c5ccc(C)cc5)cc4[nH]3)cc2)cc1	14 µM	21 µM	96 µM	22 µM	38 µM	24 µM	46 µM	> 62.5 µM	> 100 µM	25 µM	> 100 µM	79 µM	–	–
O=S(=O)(Nc1ccc(-c2nc3cc(NS(=O)(=O)c4ccc(F)cc4)ccc3o2)cc1)c1ccc(F)cc1	12 µM	17 µM	63 µM	22 µM	31 µM	–	19 µM	> 62.5 µM	> 100 µM	18 µM	27 µM	63 µM	–	–
O=S(=O)(Nc1ccc(-c2nc3cc(NS(=O)(=O)c4ccccc4)ccc3o2)cc1)c1ccccc1	13 µM	16 µM	> 100 µM	23 µM	25 µM	–	18 µM	> 62.5 µM	> 100 µM	16 µM	30 µM	86 µM	–	–
COc1ccc(S(=O)(=O)Nc2ccc3oc(-c4ccc(NS(=O)(=O)c5cc(F)ccc5OC)cc4)nc3c2)cc1	15 µM	15 µM	> 100 µM	–	–	18 µM	30 µM	> 62.5 µM	> 100 µM	18 µM	> 100 µM	> 100 µM	25 µM	24 µM
O=S(=O)(Nc1ccc(-c2nc3cc(NS(=O)(=O)c4ccc(Cl)s4)ccc3o2)cc1)c1ccc(Cl)c(C(F)(F)F)c1	17 µM	21 µM	56 µM	21 µM	34 µM	2.8 µM	8.3 µM	> 62.5 µM	–	–	63 µM	6.7 µM	–	–
COc1ccccc1S(=O)(=O)Nc1ccc(-c2nc3cc(NS(=O)(=O)c4ccccc4OC)ccc3o2)cc1	9.2 µM	16 µM	81 µM	48 µM	28 µM	43 µM	33 µM	> 62.5 µM	> 100 µM	6.6 µM	74 µM	87 µM	–	–
COc1c(Br)cccc1C(=O)Nc1ccc(Sc2nc3ccccc3s2)cc1	31 µM	30 µM	–	> 100 µM	> 100 µM	–	–	> 62.5 µM	–	40 µM	–	–	–	–
O=S(=O)(Nc1ccc(-c2nc3cc(NS(=O)(=O)c4ccccc4Cl)ccc3o2)cc1)c1ccccc1Cl	12 µM	15 µM	38 µM	25 µM	46 µM	40 µM	43 µM	> 62.5 µM	> 100 µM	17 µM	45 µM	–	–	–
O=S(=O)(Nc1ccc(-c2nc3cc(NS(=O)(=O)c4cccc(C(F)(F)F)c4)ccc3o2)cc1)c1cccc(C(F)(F)F)c1	14 µM	–	> 100 µM	24 µM	23 µM	14 µM	–	> 62.5 µM	–	–	56 µM	54 µM	–	–
Nc1ccc(S(=O)(=O)Nc2ccc(-c3nc4cc(NS(=O)(=O)c5ccc(N)cc5)ccc4o3)cc2)cc1	17 µM	24 µM	53 µM	39 µM	63 µM	–	3.1 µM	> 62.5 µM	> 100 µM	47 µM	65 µM	44 µM	–	–
O=C(Nc1ccc(Sc2nc3ccccc3s2)cc1)c1cc(Br)cc(Br)c1O	19 µM	21 µM	75 µM	19 µM	69 µM	3.2 µM	2.2 µM	6.6 µM	–	20 µM	74 µM	5.9 µM	–	–
COc1ccc(S(=O)(=O)Nc2ccc(-c3nc4cc(NS(=O)(=O)c5ccc(OC)cc5)ccc4o3)cc2)cc1	12 µM	40 µM	40 µM	60 µM	48 µM	30 µM	56 µM	> 62.5 µM	> 100 µM	28 µM	57 µM	–	–	–
O=S(=O)(Nc1ccc(-c2nc3cc(NS(=O)(=O)c4ccc(Cl)s4)ccc3o2)cc1)c1ccc(Cl)s1	15 µM	33 µM	65 µM	48 µM	41 µM	2.8 µM	–	57 µM	–	33 µM	43 µM	6.5 µM	–	–
O=C(Nc1ccc(Sc2nc3ccccc3s2)cc1)c1cccc(Br)c1O	8.9 µM	9.3 µM	75 µM	12 µM	33 µM	42 µM	37 µM	> 62.5 µM	–	12 µM	59 µM	> 100 µM	–	–
